In ChEMBL document CHEMBL1155836, “Discovery of imidazole carboxamides as potent and selective CCK1R agonists” (Bioorg Med Chem Lett, 2008) one finds Activity, EC50 and IC50 data, which are given here for 29 molecules.

In experiment [1] the target is T1, Gastrin/cholecystokinin type B receptor (Homo sapiens) (UniProt P32239).
T1 sequence (whole entry): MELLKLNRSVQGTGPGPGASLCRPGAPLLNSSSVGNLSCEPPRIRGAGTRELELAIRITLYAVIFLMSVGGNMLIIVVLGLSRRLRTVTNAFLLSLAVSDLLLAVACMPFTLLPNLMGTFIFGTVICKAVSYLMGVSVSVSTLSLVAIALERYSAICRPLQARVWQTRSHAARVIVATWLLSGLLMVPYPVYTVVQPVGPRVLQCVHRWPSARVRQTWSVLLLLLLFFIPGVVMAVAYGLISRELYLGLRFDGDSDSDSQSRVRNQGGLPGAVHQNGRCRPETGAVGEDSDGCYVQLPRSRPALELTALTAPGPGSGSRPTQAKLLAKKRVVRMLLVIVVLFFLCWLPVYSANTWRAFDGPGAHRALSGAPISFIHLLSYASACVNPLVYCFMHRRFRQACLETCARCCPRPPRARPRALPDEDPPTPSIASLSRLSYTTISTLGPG
Description: Agonist activity against human CCK2 receptor. The experiment is classed as functional.

Experiment [2] concerns the target T1, Gastrin/cholecystokinin type B receptor (Homo sapiens). As to the kind of experiment: Agonist activity against human CCK2 receptor assessed as receptor activation at 10000 nM. The experiment is classed as functional.
For experiment [3], the target named is T2, Cholecystokinin receptor type A (Homo sapiens, UniProt P32238).
T2 sequence (P32238 whole entry): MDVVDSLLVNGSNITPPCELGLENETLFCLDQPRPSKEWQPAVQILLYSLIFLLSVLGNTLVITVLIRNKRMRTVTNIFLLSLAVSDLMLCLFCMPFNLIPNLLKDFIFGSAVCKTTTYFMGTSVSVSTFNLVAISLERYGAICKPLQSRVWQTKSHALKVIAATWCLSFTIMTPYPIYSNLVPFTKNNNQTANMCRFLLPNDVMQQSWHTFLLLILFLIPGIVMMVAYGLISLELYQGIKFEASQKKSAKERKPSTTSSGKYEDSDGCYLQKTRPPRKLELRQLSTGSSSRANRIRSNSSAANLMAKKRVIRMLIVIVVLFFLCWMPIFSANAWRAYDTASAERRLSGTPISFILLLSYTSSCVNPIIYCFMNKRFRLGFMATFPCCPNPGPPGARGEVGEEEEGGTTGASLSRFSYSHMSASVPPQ
As to the kind of experiment: Agonist activity against human CCK1 receptor. The experiment is classed as functional.

Experiment [4] concerns the target T3, Cholecystokinin receptor type A (Homo sapiens) (UniProt P32238).
T3 sequence (whole entry): T2 sequence (P32238 whole entry)
Description: Agonist activity against human CCK1 receptor assessed as receptor activation at 10000 nM. The experiment is classed as functional.

The target of experiment [5] is T2, Cholecystokinin receptor type A. As to the kind of experiment: Inhibition of human CCK1 receptor.

Broadly, the EC50 is the concentration giving half of the maximal effect. The term IC50 denotes the concentration that inhibits the measured activity by half. Lower therefore signals higher potency.

The structures appear in SMILES notation. Calls of active or inactive are those of the source. The calls are words filed in the database; no cut-off is given here.

Take `CCOc1cccc(-n2cc(C(=O)N3CCN(c4ccc5ccccc5c4)CC3)nc2-c2ccc(CC)cc2)c1`: in experiment [1], the result was inactive. The figures for the Activity in experiment [2] and in experiment [4] were less than 12% and 83%, respectively. The same molecule returned an EC50 in experiment [3] of 175 nM. In experiment [5], the half-maximal inhibitory concentration (IC50) was determined as 43 nM.
On the same counts, the results for `COc1cccc(-n2cc(C(=O)N3CCN(c4nc5ccccc5[nH]4)CC3)nc2-c2ccc(C)cc2)c1` are “inactive”, less than 20%, 89%, 9.1 nM and 17 nM.
For the molecule `COc1cccc(-n2cc(C(=O)N3CCN(c4cccc5ccccc45)CC3)nc2-c2ccc(C)cc2)c1`, the result in experiment [1] was inactive. Also, the Activity in experiment [2] was less than 20%; in experiment [4], 30%. This molecule gave an EC50 in experiment [3] of 5370 nM. The molecule further registered an IC50 in experiment [5] of 630 nM.
On the same counts, the results for `COc1ccc(-n2cc(C(=O)N3CCN(c4ccc5ccccc5c4)CC3)nc2-c2ccc(C)cc2)cc1` are “inactive”, less than 21%, 110%, 20 nM and 6.9 nM.
On the same counts, the results for `CCOc1cccc(-n2cc(C(=O)N3CCN(c4ccc5ccccc5c4)CC3)nc2-c2cccc(F)c2)c1` are “inactive”, less than 12%, 106%, 105 nM and 35 nM.
As for `COc1cccc(-n2cc(C(=O)N3CCN(c4cc5ccccc5cn4)CC3)nc2-c2ccc(C)cc2)c1`, in experiment [1], the outcome was inactive. Also, the Activity in experiment [2] is less than 20%; in experiment [4], 89%. In experiment [3], this molecule showed an EC50 of 8.4 nM. This molecule registered an IC50 in experiment [5] of 1.9 nM.
For `COc1cccc(-n2cc(C(=O)N3CCN(c4cc5ccccc5cc4C(=O)O)CC3)nc2-c2ccc(C)cc2)c1`, in that order: “inactive”, less than 20%, 92%, 0.4 nM and 1.3 nM.
On the same counts, the results for `Cc1ccc(-c2nc(C(=O)N3CCN(c4ccc5ccccc5c4)CC3)cn2-c2cccc(OC(F)(F)F)c2)cc1` are “inactive”, less than 21%, 66%, 3150 nM and 130 nM.
For `COc1cccc(-n2cc(C(=O)N3CCN(c4ccc5ncccc5c4)CC3)nc2-c2ccc(C)cc2)c1`, in that order: “inactive”, less than 20%, 108%, 9.3 nM and 8.6 nM.
For `CCc1cccc(-n2cc(C(=O)N3CCN(c4ccc5ccccc5c4)CC3)nc2-c2ccc(C)cc2)c1`, the result in experiment [1] was inactive. For the same molecule, the Activity is less than 21% in experiment [2] and 101% in experiment [4]. The concentration for a half-maximal effect (EC50) in experiment [3] turned out to be 65 nM. Further, in experiment [5], it took 43 nM to reach half-maximal inhibition (IC50).
As for `COc1cccc(-n2cc(C(=O)N3CCN(c4cc(C(=O)O)c5ccccc5c4)CC3)nc2-c2ccc(C)cc2)c1`, the outcome in experiment [1] was inactive. Moreover, the Activity in experiment [2] was less than 20%; in experiment [4], 85%. This molecule registered an EC50 in experiment [3] of 0.078 nM. Also, the IC50 in experiment [5] was 0.14 nM.
For `CCOc1cccc(-n2cc(C(=O)N3CCN(c4ccc5ccccc5c4)CC3)nc2-c2ccccc2)c1`, in that order: “inactive”, less than 12%, 100%, 7.4 nM and 3.4 nM.
On the same counts, the results for `CCOc1cccc(-n2cc(C(=O)N3CCN(c4ccc5ccccc5c4)CC3)nc2-c2ccc(F)cc2F)c1` are “inactive”, less than 12%, 103%, 1.1 nM and 1 nM.
For the molecule `COc1cccc(-n2cc(C(=O)N3CCN(c4cnc5ccccc5c4)CC3)nc2-c2ccc(C)cc2)c1`, the outcome in experiment [1] was inactive. Besides, the Activity is less than 20% in experiment [2] and 92% in experiment [4]. Further, it took 1.1 nM to reach a half-maximal effect in experiment [3] (EC50). This molecule also registered an IC50 in experiment [5] of 1.3 nM.
On the same counts, the results for `CCCOc1cccc(-n2cc(C(=O)N3CCN(c4ccc5ccccc5c4)CC3)nc2-c2ccc(C)cc2)c1` are “inactive”, less than 21%, 89%, 962 nM and 160 nM.
`Cc1ccc(-c2nc(C(=O)N3CCN(c4ccc5ccccc5c4)CC3)cn2-c2cccc(O)c2)cc1`: the outcome in experiment [1] was inactive. The Activity in experiment [2] was less than 21%; in experiment [4], 102%. Further, in experiment [3], the EC50 came out at 82 nM. The same molecule had a 50% inhibitory concentration (IC50) in experiment [5] of 22 nM.
For `COc1cccc(-n2cc(C(=O)N3CCN(c4ccc5cnccc5c4)CC3)nc2-c2ccc(C)cc2)c1`, in that order: “inactive”, less than 20%, 86%, 106 nM and 190 nM.
On the same counts, the results for `CCOc1cccc(-n2cc(C(=O)N3CCN(c4ccc5ccccc5c4)CC3)nc2-c2ccc(F)cc2)c1` are “inactive”, less than 12%, 96%, 2.9 nM and 1.9 nM.
Consider `COc1cccc(-c2cc(C(=O)N3CCN(c4cccc(Cl)c4)CC3)nn2-c2ccc(C)cc2)c1`, for which the results for the Activity in experiment [2] and in experiment [4] were 4.4% and 82%, respectively. Besides, the concentration for a half-maximal effect (EC50) in experiment [3] is 308 nM. Also, the IC50 in experiment [5] was determined as 41 nM.
With `COc1cccc(-n2cc(C(=O)N3CCN(c4cccc(Cl)c4)CC3)nc2-c2ccc(C)cc2)c1`, the result in experiment [1] was inactive. Also, the figures for the Activity in experiment [2] and in experiment [4] were less than 20% and 89%, respectively. Moreover, the response in experiment [3] was half-maximal at 74 nM (EC50). In experiment [5], this molecule returned an IC50 of 14 nM.
For `CCOc1cccc(-n2cc(C(=O)N3CCN(c4ccc5ccccc5c4)CC3)nc2-c2ccc(C)cc2)c1`, in that order: “inactive”, less than 12%, 93%, 6.6 nM and 2.3 nM.
For `CCOc1cccc(-n2cc(C(=O)N3CCN(c4ccc5ccccc5c4)CC3)nc2-c2ccc(Cl)cc2)c1`, in that order: “inactive”, less than 12%, 119%, 5.5 nM and 5.6 nM.
On the same counts, the results for `COc1cccc(-n2cc(C(=O)N3CCN(c4ccc5ccccc5c4)CC3)nc2-c2ccc(C)cc2)c1` are “inactive”, less than 21%, 99%, 9.6 nM and 2.5 nM.
Take `Cc1ccc(-c2nc(C(=O)N3CCN(c4ccc5ccccc5c4)CC3)cn2-c2cccc(OC(C)C)c2)cc1`: the outcome in experiment [1] was inactive. Also, the Activity was less than 21% in experiment [2] and 94% in experiment [4]. The molecule further gave a half-maximal effective concentration (EC50) in experiment [3] of 53 nM. This molecule also returned a concentration for half-maximal inhibition (IC50) in experiment [5] of 30 nM.
On the same counts, the results for `CCOc1cccc(-n2cc(C(=O)N3CCN(c4ccc5ccccc5c4)CC3)nc2-c2ccccc2F)c1` are “inactive”, less than 12%, 110%, 6.3 nM and 1.9 nM.
On the same counts, the results for `CCOc1cccc(-n2cc(C(=O)N3CCN(c4ccc5ccccc5c4)CC3)nc2-c2ccc(C)cc2F)c1` are “inactive”, less than 12%, 116%, 1.9 nM and 0.56 nM.
For `Cc1ccc(-c2nc(C(=O)N3CCN(c4ccc5ccccc5c4)CC3)cn2-c2cccc3c2OCCO3)cc1`, in that order: “inactive”, less than 21%, 70%, 471 nM and 140 nM.
For the molecule `COc1cccc(-n2cc(C(=O)N3CCN(c4ccc5ccccc5n4)CC3)nc2-c2ccc(C)cc2)c1`, the result in experiment [1] was inactive. Further, the Activity is less than 20% in experiment [2] and 89% in experiment [4]. The molecule also registered an EC50 in experiment [3] of 43 nM. The 50% inhibitory concentration (IC50) in experiment [5] worked out at 16 nM.
In the case of `COc1cccc(-n2cc(C(=O)N3CCN(c4ccc(Cl)c(Cl)c4)CC3)nc2-c2ccc(C)cc2)c1`, the outcome in experiment [1] was inactive. In addition, the figures for the Activity in experiment [2] and in experiment [4] were less than 20% and 99%, respectively. In experiment [3], this molecule gave a half-maximal effective concentration (EC50) of 25 nM. The same molecule registered a half-maximal inhibitory concentration (IC50) in experiment [5] of 8 nM.
